Measurements as given in PubChem BioAssay (NCI).
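How tested: cells in 96-well plates exposed to compound for 48 hours at five concentrations. GI50 marks 50% less growth. TGI marks complete inhibition of growth.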

Key:
Assay in all cases: DTP human tumour cell line panel, 48 h
EKVX NSCLC = tested on: EKVX NSCLC
KM12 colon = tested on: KM12 colon
HOP-62 NSCLC = tested on: HOP-62 NSCLC
OVCAR-5 ovarian = tested on: OVCAR-5 ovarian
COLO 205 colon = tested on: COLO 205 colon
SNB-75 CNS = tested on: SNB-75 CNS
MDA-MB-435 = tested on: MDA-MB-435
HCC-2998 colon = tested on: HCC-2998 colon
HCT-15 colon = tested on: HCT-15 colon
RXF 393 renal = tested on: RXF 393 renal
TK-10 renal = tested on: TK-10 renal
MCF7 breast = tested on: MCF7 breast
SF-539 CNS = tested on: SF-539 CNS
T-47D breast = tested on: T-47D breast
M14 melanoma = tested on: M14 melanoma
SN12C renal = tested on: SN12C renal
CCRF-CEM leukemia = tested on: CCRF-CEM leukemia
HOP-92 NSCLC = tested on: HOP-92 NSCLC
NCI-H23 lung = tested on: NCI-H23 lung
HCT-116 colon = tested on: HCT-116 colon
SK-MEL-2 melanoma = tested on: SK-MEL-2 melanoma
U251 CNS = tested on: U251 CNS
OVCAR-3 ovarian = tested on: OVCAR-3 ovarian
SF-295 CNS = tested on: SF-295 CNS
SK-MEL-5 melanoma = tested on: SK-MEL-5 melanoma
HS 578T breast = tested on: HS 578T breast
SK-MEL-28 melanoma = tested on: SK-MEL-28 melanoma
LOX IMVI melanoma = tested on: LOX IMVI melanoma
UO-31 renal = tested on: UO-31 renal

With `C#C[C@]1(O)CC[C@H]2[C@@H]3CC=C4c5sc(Nc6cccc(Cl)n6)nc5CC[C@]4(C)[C@H]3CC[C@@]21C` the GI50 (EKVX NSCLC) was 1290 nM, the TGI (EKVX NSCLC) was 6740 nM and the GI50 (KM12 colon) was 1250 nM. It also gave a TGI (KM12 colon) of 3150 nM, a GI50 (HOP-62 NSCLC) of 796 nM and a TGI (HOP-62 NSCLC) of 2230 nM. The GI50 (OVCAR-5 ovarian) was 1560 nM, the TGI (OVCAR-5 ovarian) was 3350 nM and the GI50 (COLO 205 colon) was 1690 nM. It also gave a TGI (COLO 205 colon) of 3400 nM, a GI50 (SNB-75 CNS) of 815 nM and a TGI (SNB-75 CNS) of 6540 nM. For the same compound, the GI50 (MDA-MB-435) was 1010 nM, the TGI (MDA-MB-435) was 2730 nM and the GI50 (HCC-2998 colon) was 1880 nM. For the same compound, the TGI (HCC-2998 colon) was 4100 nM, the GI50 (HCT-15 colon) was 672 nM and the TGI (HCT-15 colon) was 2440 nM. The GI50 (RXF 393 renal) was 122 nM, the TGI (RXF 393 renal) was 349 nM and the GI50 (TK-10 renal) was 1790 nM. For the same compound, the TGI (TK-10 renal) was 4060 nM, the GI50 (MCF7 breast) was 550 nM and the TGI (MCF7 breast) was 2400 nM. The GI50 (SF-539 CNS) was 204 nM, the TGI (SF-539 CNS) was 636 nM and the GI50 (T-47D breast) was 1840 nM. For the same compound, the TGI (T-47D breast) was 5310 nM, the GI50 (M14 melanoma) was 491 nM and the TGI (M14 melanoma) was 1780 nM. The GI50 (SN12C renal) was 1600 nM, the TGI (SN12C renal) was 3380 nM and the GI50 (CCRF-CEM leukemia) was 430 nM. For the same compound, the TGI (CCRF-CEM leukemia) was greater than 21100 nM, the GI50 (HOP-92 NSCLC) was 1200 nM and the TGI (HOP-92 NSCLC) was 2660 nM. It also gave a GI50 (NCI-H23 lung) of 1610 nM, a TGI (NCI-H23 lung) of 4770 nM and a GI50 (HCT-116 colon) of 565 nM. For the same compound, the TGI (HCT-116 colon) was 1920 nM, the GI50 (SK-MEL-2 melanoma) was 1190 nM and the TGI (SK-MEL-2 melanoma) was 3340 nM. It also gave a GI50 (U251 CNS) of 428 nM, a TGI (U251 CNS) of 2050 nM and a GI50 (OVCAR-3 ovarian) of 1450 nM. It also gave a TGI (OVCAR-3 ovarian) of 3130 nM, a GI50 (SF-295 CNS) of 205 nM and a TGI (SF-295 CNS) of 529 nM. For the same compound, the GI50 (SK-MEL-5 melanoma) was 1650 nM, the TGI (SK-MEL-5 melanoma) was 3120 nM and the GI50 (HS 578T breast) was 338 nM. For the same compound, the TGI (HS 578T breast) was 1550 nM, the GI50 (SK-MEL-28 melanoma) was 226 nM and the TGI (SK-MEL-28 melanoma) was 597 nM. The GI50 (LOX IMVI melanoma) was 705 nM, the TGI (LOX IMVI melanoma) was 1980 nM and the GI50 (UO-31 renal) was 576 nM. It also gave a TGI (UO-31 renal) of 1870 nM.
